Here are results for seven molecules from patent publication US20210024985A1, “Devices and Methods Useful for Imaging Transient and Rare Mechanical Events in Cells” (Emory University, priority 2019, published 2021).

The subject of series [1] is TCR. Description: TCR tension imaging of naïve OT-1 cells in real-time and locked state (mechanical sampling and scanning). It is filed as cell-based. The procedure:
Mechano-locking enhances TCR-pMHC tension signals by accumulating pulling events that are >4.7 pN. The degree of enhancement and dynamics were evaluated. OT-1 T cells were allowed to engage real-time tension probes and then incubated with unlabeled locking strand (200 nM). The unlabeled locking strand was beneficial here because it eliminated bleed-through from the Atto647N tag. Additionally, avoiding the rinsing steps accelerates the experiments and reduces perturbation of cells.
A time course for TCR-N4 pMHC tension signal accumulation for three cells upon addition of the locking strand was imaged. […] Tension occupancy, which is the fraction of the cell contact area showing tension signal, reached 91% in 10 min. The tension occupancy is an indication of the area that is mechanically scanned by the TCR with F >4.7 pN in search for antigen.
T cells mechanically sample their cognate and near cognate ligands over time. […]
The signal accumulation levels differed when cells were presented with antibody, cognate pMHC, and altered peptide ligands. To quantify these differences on a per cell basis, two parameters were defined: the mechanical sampling factor, which is the fold enhancement in integrated tension signal; and the mechanical scanning factor, which reflects the fold increase in tension occupancy (FIG. 3B). […]

The test system of series [2] is TCR. Conditions: independent of CD8, cited from earlier work.
In series [3] the test system is MTFM hairpin tension probe (stem-loop DNA hairpin). Description: Hybridization of locking strand to folded MTFM probe versus unstructured single stranded DNA on model surfaces. It is filed as binding. The procedure: Fluorescence measurements of in-situ hybridization kinetics between the immobilized MTFM probes and the locking oligonucleotides at 200 nM. Locking oligonucleotides were added to surfaces presenting the MTFM tension probes at room temperature and allowed to bind to the hairpin for >1 h. Hybridization was monitored by the increase in fluorescence due to hairpin opening.
The selectivity of lock strand binding to unfolded hairpins over folded ones was measured by using model surfaces that either presented a folded MTFM probe or an unstructured single stranded DNA sequence. The unstructured sequence included a complementary region to the 17mer, thus providing a model for the opened state of the MTFM hairpin probes.
Conversely, mechanical stretching of DNA with large values of tension is expected to hinder hybridization. This is because forming the B-form duplex becomes less energetically favorable. Indeed, when F≈40 pN for a 24mer, this created a barrier to hybridization. […] Given that TCR forces are below 19 pN, estimates of mechano-selectivity are justified here.
Based on these criteria, five different locking oligonucleotides were designed that ranged in length from 25mer to 13mer to screen (FIG. 7A). Gold nanoparticle MTFM tension probe surfaces were prepared (FIG. 9). […] The locking oligonucleotides were tested. The 17mer has the most desirable properties (FIG. 7C). To estimate mechano-selectivity, the differential binding of locking strand to MTFM probe at rest to that of an unstructured sequence (mimicking opened state of MTFM probe) were compared.

In series [4] the test system is MTFM tension probes opened by naïve OT-1 T cells. The experiment in a line: Locking/unlocking of tension probes presenting antiCD3ε in live naïve OT-1 T cells. The format is cell-based. Conditions: 200 nM unlocking strand. The procedure: The mechanically opened probes were locked with 200 nM locking strand over 10 min. After rinsing away excess locking strand, the unlocking strand was added at a final concentration of 200 nM, and the tension signal for the same cells was measured as a function of time.
To test locking/unlocking the oligonucleotide complexes in live cells, naïve OT-1 T cells were allowed to adhere and spread on MTFM probe surfaces presenting antiCD3ε antibodies. Cells generated tension signal as the TCR engaged the antibody and transmitted forces to the probes. Subsequently, the Atto647N-tagged locking strand was added for 10 min, washed, and the same T cells were imaged, confirming binding. […] Significant co-localization between the Cy3B (hairpin opening) and the Atto647N (locking strand) signals was found, as evident from linescan analysis and the Pearson's correlation coefficient of 0.72±0.096 (n=20 cells). The excess locking strand was rinsed away before re-imaging. “Erasing” the stored cellular mechanical information was tested. This process was triggered by adding 200 nM unlocking strand to the sample for 2-3 min and confirmed by imaging the same group of T cells. The unlocking process was rapid and reached completion within 60 s. Control experiments using tension probes with a scrambled stem-loop confirmed the specificity of locking real-time tension. […]

In series [5] the target is OT-1 T-cell receptor (TCR) on OT-1 CD8+ T cells. The experiment in a line: cell-based or functional assay.

Where two headings read alike, the source gives them in different places.

“N4: antigenic pMHC, peptide SIINFEKL (SEQ ID NO: 22), OT-1 TCR antigen derived from chicken ovalbumin”: the “enhancement of the integrated tension signal per cell” value in the series with TCR [1] (200 nM unlabeled locking strand, n=16 cells) is reported as “approximately 189 fold”. In the series with TCR [1] (in 10 min after locking strand, F >4.7 pN), this molecule had a tension occupancy of 91%. Besides, the results for the average bond lifetime in the series on TCR [2] (at 10 pN) and in the series on TCR [2] (at zero force) were 800 ms and 100 ms, respectively.
Consider “locking strand: 17mer locking oligonucleotide GAAAAAAACATTTATAC (SEQ ID NO: 6) that hybridizes to mechanically unfolded hairpin; 8 nt toehold at 3′ end for unlocking (listed as DNA, chemistry not fully specified)”, for which, in series [3], the “mechano-selectivity: differential binding to MTFM probe at rest vs unstructured sequence” value is given as “greater than two orders of magnitude”. Further, the “hybridization to the MTFM probes among locking oligonucleotides 13mer to 25mer” value in series [3] (200 nM, room temperature, >1 h) was “optimal hybridization”. Further, the “hybridization to the closed hairpin tension probe, incubation without saturation” value in series [3] (closed hairpin tension probe) is > 8 h. Moreover, the “difference in binding rates (lock binding selectivity between mechanically unfolded and folded probes)” value in series [3] (pseudo first-order kinetics, one-phase association fit, unstructured sequence vs folded MTFM probe) is on record as 487 fold. Further, the “hybridization to the unstructured sequence, time to saturation” value in series [3] (unstructured ssDNA with region complementary to the 17mer) is on record as “saturated in seconds”.
Take “unlocking strand: strand (SEQ ID NO: 20) that triggers toehold-mediated strand displacement releasing the locking strand (DNA TAGGTAGGGTATAAAATGTTTTTTC; listed as DNA, chemistry not given here)”: the “time to completion of unlocking” value in series [4] is ≤ 60 s.
In the case of SIIVFEKL (peptide-MHC, part only; not given: MHC molecule, part only) [pMHC V4 (SIIXFEKL, SEQ ID NO: 23, X=V)], the mechanical sampling factor in series [5] was 33 fold.
Still for that read-out and setting: for SIIGFEKL (peptide-MHC, part only; not given: MHC molecule, part only) [mutant pMHC G4 (SIIGFEKL, SEQ ID NO: 24)] the value was 10 fold.
The same measure, in the same setting: in the case of SIIQFEKL (peptide-MHC, part only; not given: MHC molecule, part only) [pMHC Q4 (SIIXFEKL, SEQ ID NO: 23, X=Q)] it was 66 fold.
Consider SIINFEKL (peptide-MHC, part only; not given: MHC molecule, part only) [antigenic N4 pMHC (peptide SIINFEKL, SEQ ID NO: 22)], for which, in series [5], the enhancement of the integrated N4 tension signal per cell after locking is 189 fold, the force transmitted (hairpin probe threshold) is > 4.7 pN, the fraction of antigen mechanically scanned over initial contact area within 10 min migration (ICAM-1/pMHC N4 surface) worked out at 81% and the mechanical sampling factor is 165 fold. In addition, the tension occupancy in series [5] came out at 91%.
